The nature of series [1]: Dose normalized Cmax in DA rat at 5 mg/kg, po. Format: ADME, organism-based. Conditions: in vivo.
A short description of series [2]: Terminal half life in Sprague-Dawley rat at 1 mg/kg, iv. Format: ADME, organism-based. Conditions: in vivo, read-out: beta t1/2 (converted).
Series [3] has as its target T1, Retinoic acid receptor RXR-alpha (Homo sapiens, UniProt P19793).
T1 sequence (P19793 whole entry): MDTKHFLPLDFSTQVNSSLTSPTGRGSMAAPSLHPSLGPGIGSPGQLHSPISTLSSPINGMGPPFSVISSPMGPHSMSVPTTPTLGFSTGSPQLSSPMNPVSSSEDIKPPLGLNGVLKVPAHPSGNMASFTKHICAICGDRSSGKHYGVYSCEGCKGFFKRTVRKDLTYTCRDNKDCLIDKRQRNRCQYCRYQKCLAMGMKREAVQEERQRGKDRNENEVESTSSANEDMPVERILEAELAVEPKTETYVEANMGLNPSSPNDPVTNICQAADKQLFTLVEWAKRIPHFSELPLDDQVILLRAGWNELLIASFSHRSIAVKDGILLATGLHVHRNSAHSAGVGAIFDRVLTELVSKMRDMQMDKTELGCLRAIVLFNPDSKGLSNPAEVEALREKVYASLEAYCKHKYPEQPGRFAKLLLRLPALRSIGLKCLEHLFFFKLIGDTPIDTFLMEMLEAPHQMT
Briefly: Inhibition of Gal4-tagged RXRalpha LBD (unknown origin) by cell based luciferase reporter gene assay. A general note: A reporter such as luciferase makes a cellular process visible.

A short description of series [4]: Oral bioavailability in DA rat at 3 mg/kg. Conditions: in vivo. Format: ADME, organism-based.
Series [5] is described as follows: Distribution coefficient of the compound, high-throughput logD using octanol-buffer at pH 7.4 by LC-MS/MS analysis shake flask method. Format: physicochemical.
Series [6] can be described thus: Clearance in Sprague-Dawley rat at 1 mg/kg, iv. The series is classed as ADME, organism-based. Conditions: in vivo.
Series [7] deals with T2, Nuclear receptor ROR-gamma (Homo sapiens, UniProt P51449).
T2 sequence (P51449 whole entry): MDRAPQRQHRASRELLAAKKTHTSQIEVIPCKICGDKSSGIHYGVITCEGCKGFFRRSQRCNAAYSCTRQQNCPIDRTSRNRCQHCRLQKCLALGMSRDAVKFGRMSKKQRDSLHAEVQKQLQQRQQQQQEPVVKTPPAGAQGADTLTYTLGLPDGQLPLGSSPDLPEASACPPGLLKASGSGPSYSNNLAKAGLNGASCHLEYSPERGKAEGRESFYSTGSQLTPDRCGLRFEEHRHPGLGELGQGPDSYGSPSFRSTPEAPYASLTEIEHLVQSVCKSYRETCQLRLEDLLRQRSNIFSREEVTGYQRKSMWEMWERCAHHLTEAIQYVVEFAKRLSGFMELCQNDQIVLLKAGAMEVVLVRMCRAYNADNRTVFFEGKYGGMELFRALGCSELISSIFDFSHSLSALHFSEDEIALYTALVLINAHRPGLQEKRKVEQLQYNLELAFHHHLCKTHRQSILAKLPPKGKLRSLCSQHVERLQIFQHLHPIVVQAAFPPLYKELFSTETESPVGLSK
Briefly: Inhibition of Gal4-tagged RORgammat LBD (unknown origin) by cell based luciferase reporter gene assay.

A further series has as its target Cytochrome P450 3A4 (Homo sapiens, UniProt P08684). Briefly: Time dependent inhibition of CYP3A4 (unknown origin). Also noted: concentration or dose not given beside the values. Format: ADME.
Series [8] concerns the target T2, Nuclear receptor ROR-gamma. Nature of the series: Inverse agonist activity at RORgammat in human whole blood assessed as reduction in Con A/IL-23-stimulated IL-17 secretion after 72 hrs by ELISA. Format: tissue-based. A general note: An ELISA detects its analyte on a solid surface through an enzyme-linked reagent.
Series [9] deals with T3, Peroxisome proliferator-activated receptor gamma (Homo sapiens, UniProt P37231).
T3 sequence (P37231 whole entry): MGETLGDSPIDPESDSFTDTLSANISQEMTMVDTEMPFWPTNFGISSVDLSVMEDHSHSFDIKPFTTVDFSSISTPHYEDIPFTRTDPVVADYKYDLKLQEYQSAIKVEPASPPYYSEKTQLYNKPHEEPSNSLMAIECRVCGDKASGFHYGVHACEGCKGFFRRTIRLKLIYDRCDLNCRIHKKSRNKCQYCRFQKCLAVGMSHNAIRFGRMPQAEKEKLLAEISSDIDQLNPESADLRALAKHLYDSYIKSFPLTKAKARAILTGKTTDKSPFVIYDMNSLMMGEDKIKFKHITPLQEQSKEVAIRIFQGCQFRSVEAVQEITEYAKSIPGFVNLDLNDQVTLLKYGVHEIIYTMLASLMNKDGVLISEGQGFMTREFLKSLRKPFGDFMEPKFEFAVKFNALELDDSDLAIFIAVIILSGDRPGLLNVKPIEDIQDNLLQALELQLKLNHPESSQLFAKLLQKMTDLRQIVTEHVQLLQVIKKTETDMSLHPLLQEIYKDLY
Briefly: Inhibition of Gal4-tagged PPARgamma LBD (unknown origin) by cell based luciferase reporter gene assay.

The next series concerns the target T4, Progesterone receptor (Homo sapiens, UniProt P06401).
T4 sequence (P06401 whole entry): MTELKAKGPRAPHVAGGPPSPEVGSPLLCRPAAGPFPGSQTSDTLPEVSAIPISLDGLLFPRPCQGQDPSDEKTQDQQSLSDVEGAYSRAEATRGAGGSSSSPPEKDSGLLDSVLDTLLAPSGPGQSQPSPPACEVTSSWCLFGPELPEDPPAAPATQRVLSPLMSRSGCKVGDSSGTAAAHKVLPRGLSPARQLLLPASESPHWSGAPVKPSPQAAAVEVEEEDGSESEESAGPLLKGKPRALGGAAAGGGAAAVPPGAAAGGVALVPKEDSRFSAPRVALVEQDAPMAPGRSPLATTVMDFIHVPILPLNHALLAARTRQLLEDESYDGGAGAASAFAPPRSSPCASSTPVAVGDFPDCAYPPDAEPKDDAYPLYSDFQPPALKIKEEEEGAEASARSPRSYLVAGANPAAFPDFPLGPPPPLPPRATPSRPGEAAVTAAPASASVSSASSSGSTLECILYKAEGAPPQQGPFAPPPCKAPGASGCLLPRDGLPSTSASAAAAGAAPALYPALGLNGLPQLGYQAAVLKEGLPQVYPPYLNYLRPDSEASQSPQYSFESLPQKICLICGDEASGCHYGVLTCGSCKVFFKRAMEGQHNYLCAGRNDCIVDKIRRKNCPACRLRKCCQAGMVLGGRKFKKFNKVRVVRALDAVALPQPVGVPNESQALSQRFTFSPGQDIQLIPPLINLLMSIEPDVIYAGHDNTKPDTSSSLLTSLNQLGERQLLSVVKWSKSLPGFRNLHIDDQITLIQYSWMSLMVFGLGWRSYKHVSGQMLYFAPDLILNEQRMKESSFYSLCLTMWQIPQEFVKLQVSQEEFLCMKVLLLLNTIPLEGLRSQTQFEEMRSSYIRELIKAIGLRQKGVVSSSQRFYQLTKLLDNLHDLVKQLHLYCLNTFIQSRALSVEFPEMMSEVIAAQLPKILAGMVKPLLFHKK
Nature of the series: Inhibition of Gal4-tagged PR LBD (unknown origin) by cell based luciferase reporter gene assay.

We go through one molecule from ChEMBL document CHEMBL4321852, “Structure-Based and Property-Driven Optimization of N-Aryl Imidazoles toward Potent and Selective Oral RORγt Inhibitors” (J Med Chem, 2019).

Chain of Cytochrome P450 3A4 (P08684 whole entry): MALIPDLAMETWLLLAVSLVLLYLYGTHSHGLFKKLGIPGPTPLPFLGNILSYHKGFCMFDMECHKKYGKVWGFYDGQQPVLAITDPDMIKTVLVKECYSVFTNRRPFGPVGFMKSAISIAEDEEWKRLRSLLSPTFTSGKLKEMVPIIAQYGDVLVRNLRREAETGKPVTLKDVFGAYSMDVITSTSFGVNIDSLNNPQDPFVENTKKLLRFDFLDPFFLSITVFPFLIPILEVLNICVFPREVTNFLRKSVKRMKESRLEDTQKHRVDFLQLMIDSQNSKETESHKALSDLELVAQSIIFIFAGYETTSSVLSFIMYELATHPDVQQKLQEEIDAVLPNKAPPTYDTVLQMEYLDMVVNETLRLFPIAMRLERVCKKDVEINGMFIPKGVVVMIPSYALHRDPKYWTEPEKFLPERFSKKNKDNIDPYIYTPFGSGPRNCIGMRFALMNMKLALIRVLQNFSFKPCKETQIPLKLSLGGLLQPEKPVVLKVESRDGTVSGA

For orientation: IC50 means the point on the concentration scale where inhibition reaches its midpoint. Usually bioavailability stands for dose-corrected exposure relative to a reference, in per cent. As usually defined, the logD is the decadic logarithm of the distribution of all forms, ionised or not, between an organic phase and buffer at a given pH. One may read the clearance as the rate of elimination divided by the concentration. Molecule `Cc1c(C2(C(F)(F)F)CC2)nc(C2CC2)n1-c1c(Cl)ccc(N2CC3(CC(C(=O)O)C3)C2)c1Cl` (single isomer, unassigned; atropisomer) displayed a Cmax/dose in [1] of 2.448 µM. In addition, the half-life in series [2] was 5.3 h. Besides, the IC50 in series [3] is over 10 µM; in series [7] it was 0.151 µM; in series [8] it was 1.34 µM; in series [9] it was over 10 µM; on Progesterone receptor it was over 10 µM. The molecule also displayed a bioavailability in series [4] of 90%. The logD in [5] worked out at 2. For the same molecule, the clearance in [6] was 0.162 L/h/kg. Also, the K on Cytochrome P450 3A4 worked out at 0.005 min⁻¹.
